# Values quoted from earlier work in patent publication US20070197495A1, “ANTI-PARASITIC COMPOUNDS AND METHODS OF THEIR USE” (THE REGENTS OF THE UNIVERSITY OF CALIFORNIA, priority 2004, published 2007).
# How the values were obtained:
# [1] = system: T. cruzi; conditions: mouse model study (Engel et al. 1998)
# [2] = system: T. cruzi; conditions: cruzain inhibitor added to cultures of mammalian cells exposed to trypomastigotes or already infected with amastigotes
Compound,outcome of treatment of T. cruzi-infected mice [1],replication and differentiation of the parasite [2]
CN1CCN(C(=O)NC(Cc2ccccc2)C(=O)NC(C=CS(=O)(=O)c2ccccc2)CCc2ccccc2)CC1 (centres unmarked) [N-methyl piperazine-Phe-homoPhe-vinyl sulfone phenyl],cure,–
benzyloxy-carbonyl-L-phenylalanyl L-alanine fluoromethyl ketone [Z-Phe-Ala-FMK],–,blocks replication and differentiation of the parasite
